# According to ChEMBL document CHEMBL1145783, “Development of an orexin-2 receptor selective agonist, [Ala(11), D-Leu(15)]orexin-B” (Bioorg Med Chem Lett, 2003):
# Target: T1, Orexin receptor type 2 (Homo sapiens, UniProt O43614)
# T1 sequence (O43614 whole entry): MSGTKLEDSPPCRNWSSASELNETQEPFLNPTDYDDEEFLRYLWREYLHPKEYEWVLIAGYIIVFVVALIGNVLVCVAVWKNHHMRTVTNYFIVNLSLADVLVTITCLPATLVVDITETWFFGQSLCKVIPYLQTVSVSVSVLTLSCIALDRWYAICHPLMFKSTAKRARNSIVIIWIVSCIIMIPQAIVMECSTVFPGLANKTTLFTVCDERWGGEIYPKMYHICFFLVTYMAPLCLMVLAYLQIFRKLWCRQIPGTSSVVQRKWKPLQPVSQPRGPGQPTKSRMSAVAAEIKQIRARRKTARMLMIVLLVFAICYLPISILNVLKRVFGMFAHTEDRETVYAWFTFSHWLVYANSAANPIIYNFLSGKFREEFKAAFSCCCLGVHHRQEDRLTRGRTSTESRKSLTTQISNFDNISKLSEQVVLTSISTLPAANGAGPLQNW
# Assay: Agonist activity against human orexin 2 receptor; EC50; nM
# Type: functional
row,Molecule,EC50
1,CC[C@H](C)[C@H](NC(=O)[C@H](CC(C)C)NC(=O)[C@@H](NC(=O)[C@@H](N)CCSC)[C@@H](C)O)C(=O)NCC(=O)N[C@@H](C)C(=O)N[C@@H](C)C(=O)N[C@@H](Cc1c[nH]cn1)C(=O)N[C@@H](CC(N)=O)C(=O)NCC(=O)N[C@@H](CO)C(=O)N[C@@H](C)C(=O)N[C@@H](CCC(N)=O)C(=O)N[C@@H](CC(C)C)C(=O)N[C@@H](CC(C)C)C(=O)N[C@@H](CCCN=C(N)N)C(=O)N[C@H](CCC(N)=O)C(=O)N[C@H](CC(C)C)C(=O)N[C@@H](CCCN=C(N)N)C(=O)NCC(=O)N[C@@H](CCC(N)=O)C(=O)N[C@@H](CC(C)C)C(=O)NCC(=O)N1CCC[C@H]1C(=O)N1CCC[C@H]1C(=O)NCC(=O)N[C@@H](CO)C(=O)N[C@@H](CCCN=C(N)N)C(N)=O,0.11 nM
2,CC[C@H](C)[C@H](NC(=O)[C@H](CC(C)C)NC(=O)[C@@H](NC(=O)[C@@H](N)CCSC)[C@@H](C)O)C(=O)NCC(=O)N[C@@H](C)C(=O)N[C@@H](C)C(=O)N[C@@H](Cc1cnc[nH]1)C(=O)N[C@@H](CC(N)=O)C(=O)NCC(=O)N[C@@H](CO)C(=O)N[C@H](C)C(=O)N[C@@H](CCC(N)=O)C(=O)N[C@@H](CC(C)C)C(=O)N[C@@H](CC(C)C)C(=O)N[C@@H](CCCN=C(N)N)C(=O)N[C@@H](CCC(N)=O)C(=O)N[C@@H](CC(C)C)C(=O)N[C@@H](CCCN=C(N)N)C(=O)NCC(=O)N[C@@H](CCC(N)=O)C(=O)N[C@@H](CC(C)C)C(=O)NCC(=O)N1CCC[C@H]1C(=O)N1CCC[C@H]1C(=O)NCC(=O)N[C@@H](CO)C(=O)N[C@@H](CCCN=C(N)N)C(N)=O,0.26 nM
3,H-MALIGAAHNGSAQLLRQLRGQLGPPGSR-NH2,9.7 nM
4,H-MTLIGAAHNGSAQLARQLRGQLGPPGSR-NH2,0.065 nM
5,CC[C@H](C)[C@H](NC(=O)[C@H](CC(C)C)NC(=O)[C@@H](NC(=O)[C@@H](N)CCSC)[C@@H](C)O)C(=O)NCC(=O)N[C@@H](C)C(=O)N[C@@H](C)C(=O)N[C@@H](Cc1c[nH]cn1)C(=O)N[C@@H](CC(N)=O)C(=O)NCC(=O)N[C@@H](CO)C(=O)N[C@@H](C)C(=O)N[C@@H](CCC(N)=O)C(=O)N[C@@H](CC(C)C)C(=O)N[C@@H](CC(C)C)C(=O)N[C@@H](CCCN=C(N)N)C(=O)N[C@@H](CCC(N)=O)C(=O)N[C@@H](CC(C)C)C(=O)N[C@H](CCCN=C(N)N)C(=O)NCC(=O)N[C@@H](CCC(N)=O)C(=O)N[C@@H](CC(C)C)C(=O)NCC(=O)N1CCC[C@H]1C(=O)N1CCC[C@H]1C(=O)NCC(=O)N[C@@H](CO)C(=O)N[C@@H](CCCN=C(N)N)C(N)=O,0.87 nM
6,CC[C@H](C)[C@H](NC(=O)[C@H](CC(C)C)NC(=O)[C@@H](NC(=O)[C@@H](N)CCSC)[C@@H](C)O)C(=O)N[C@@H](C)C(=O)N[C@@H](C)C(=O)N[C@@H](C)C(=O)N[C@@H](Cc1cnc[nH]1)C(=O)N[C@@H](CC(N)=O)C(=O)NCC(=O)N[C@@H](CO)C(=O)N[C@@H](C)C(=O)N[C@@H](CCC(N)=O)C(=O)N[C@@H](CC(C)C)C(=O)N[C@@H](CC(C)C)C(=O)N[C@@H](CCCN=C(N)N)C(=O)N[C@@H](CCC(N)=O)C(=O)N[C@@H](CC(C)C)C(=O)N[C@@H](CCCN=C(N)N)C(=O)NCC(=O)N[C@@H](CCC(N)=O)C(=O)N[C@@H](CC(C)C)C(=O)NCC(=O)N1CCC[C@H]1C(=O)N1CCC[C@H]1C(=O)NCC(=O)N[C@@H](CO)C(=O)N[C@@H](CCCN=C(N)N)C(N)=O,290 nM
7,CC[C@H](C)[C@H](NC(=O)[C@H](CC(C)C)NC(=O)[C@@H](NC(=O)[C@@H](N)CCSC)[C@@H](C)O)C(=O)NCC(=O)N[C@@H](C)C(=O)N[C@@H](C)C(=O)N[C@@H](Cc1cnc[nH]1)C(=O)N[C@@H](CC(N)=O)C(=O)NCC(=O)N[C@@H](CO)C(=O)N[C@@H](C)C(=O)N[C@@H](CCC(N)=O)C(=O)N[C@@H](CC(C)C)C(=O)N[C@@H](CC(C)C)C(=O)N[C@@H](CCCN=C(N)N)C(=O)N[C@@H](CCC(N)=O)C(=O)N[C@@H](C)C(=O)N[C@@H](CCCN=C(N)N)C(=O)NCC(=O)N[C@@H](CCC(N)=O)C(=O)N[C@@H](CC(C)C)C(=O)NCC(=O)N1CCC[C@H]1C(=O)N1CCC[C@H]1C(=O)NCC(=O)N[C@@H](CO)C(=O)N[C@@H](CCCN=C(N)N)C(N)=O,0.066 nM
